pIC50: −log10 of the molar value.
What follows are compounds tested against TRPA1 (Homo sapiens, UniProt O75762) (assay: Determination of TRPA1 activity in vitro (TRPA1 antagonism in vitro), procedure of Wei et al., Anesthesiology 111 (2009) 147-154).
Type: cell-based
From the text: EXPERIMENT 1: Determination of TRPA1 activity in vitro
The illustrative examples of the present invention were screened for TRPA1 activity according to a procedure described in Wei et al., Anesthesiology 111 (2009) 147-154. Table 1. TRPA1 antagonism in vitro.

Chain of TRPA1 (O75762 whole entry): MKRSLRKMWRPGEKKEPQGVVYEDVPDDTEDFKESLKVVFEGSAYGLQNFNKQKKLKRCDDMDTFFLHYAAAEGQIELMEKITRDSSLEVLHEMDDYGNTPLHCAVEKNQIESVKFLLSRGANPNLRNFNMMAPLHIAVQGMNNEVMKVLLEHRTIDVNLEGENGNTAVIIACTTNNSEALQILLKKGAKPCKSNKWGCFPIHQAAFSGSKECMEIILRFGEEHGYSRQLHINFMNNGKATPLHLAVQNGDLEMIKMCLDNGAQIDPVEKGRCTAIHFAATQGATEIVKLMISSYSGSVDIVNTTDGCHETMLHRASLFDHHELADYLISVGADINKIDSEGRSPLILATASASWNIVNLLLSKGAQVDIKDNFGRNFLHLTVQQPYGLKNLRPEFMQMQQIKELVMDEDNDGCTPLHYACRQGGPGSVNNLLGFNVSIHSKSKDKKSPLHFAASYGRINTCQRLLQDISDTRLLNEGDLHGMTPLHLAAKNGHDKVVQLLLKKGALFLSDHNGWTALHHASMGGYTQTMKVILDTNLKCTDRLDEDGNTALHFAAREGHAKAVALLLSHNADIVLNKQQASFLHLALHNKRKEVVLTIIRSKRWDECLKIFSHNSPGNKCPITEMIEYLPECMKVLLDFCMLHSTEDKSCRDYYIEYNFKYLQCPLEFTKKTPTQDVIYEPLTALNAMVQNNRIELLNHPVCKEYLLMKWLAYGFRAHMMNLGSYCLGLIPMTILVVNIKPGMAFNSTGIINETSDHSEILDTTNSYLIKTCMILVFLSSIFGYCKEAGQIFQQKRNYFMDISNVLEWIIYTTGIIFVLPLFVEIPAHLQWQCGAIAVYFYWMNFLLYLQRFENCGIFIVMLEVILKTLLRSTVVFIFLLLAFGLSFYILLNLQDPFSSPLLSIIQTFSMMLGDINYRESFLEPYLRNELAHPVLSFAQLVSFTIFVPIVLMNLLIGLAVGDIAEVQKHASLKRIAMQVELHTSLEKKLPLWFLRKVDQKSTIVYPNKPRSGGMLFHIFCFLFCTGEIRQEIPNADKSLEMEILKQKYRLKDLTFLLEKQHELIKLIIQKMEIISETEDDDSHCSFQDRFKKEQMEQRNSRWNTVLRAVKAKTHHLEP

pIC50 | Compound
4.73 | O=C(NCc1cccc(Br)c1)[C@@H]1CCCN1S(=O)(=O)c1ccccc1 [Example 2, (S)-N-(3-bromobenzyl)-1-(phenylsulfonyl)pyrrolidine-2-carboxamide]
4.98 | CCCC(=O)c1cccc(CNC(=O)[C@@H]2CCCN2S(=O)(=O)c2ccc(F)cc2)c1 [Example 3, (S)-N-(3-butyrylbenzyl)-1-(4-fluorophenylsulfonyl)pyrrolidine-2-carboxamide]
4.95 | CC(C)(C)COc1cc(CNC(=O)[C@@H]2C[C@@H](F)CN2S(=O)(=O)c2ccc(F)cc2)ccn1 [Example 4, (2S,4R)-4-Fluoro-1-(4-fluorophenylsulfonyl)-N-((2-(neopentyloxy)pyridin-4-yl)methyl)pyrrolidine-2-carboxamide]
5.01 | CCc1cc(CNC(=O)[C@@H]2CCCN2S(=O)(=O)c2ccc(F)cc2)ccc1C#N [Example 5, (S)-N-(4-cyano-3-ethylbenzyl)-1-(4-fluorophenylsulfonyl)pyrrolidine-2-carboxamide]
5.29 | CCCOc1cccc(CNC(=O)[C@@H]2CCCN2S(=O)(=O)c2ccccc2)c1 [Example 6, (S)-1-(Phenylsulfonyl)-N-(3-propoxybenzyl)pyrrolidine-2-carboxamide]
4.76 | O=C(NCc1cc(OCC(F)(F)F)ccn1)[C@@H]1CCCN1S(=O)(=O)c1ccc(F)cc1 [Example 7, (S)-1-(4-Fluorophenylsulfonyl)-N-((4-(2,2,2-trifluoroethoxy)pyridin-2-yl)methyl)pyrrolidine-2-carboxamide]
4.84 | O=C(NCc1ccc(C(F)(F)F)cc1)[C@@H]1C[C@@H](F)CN1S(=O)(=O)c1ccc(F)cc1 [Example 8, (2S,4R)-4-Fluoro-1-(4-fluorophenylsulfonyl)-N-(4-(trifluoromethyl)benzyl)pyrrolidine-2-carboxamide]
5.28 | O=C(NCc1ccc(Br)cc1F)[C@@H]1CCCN1S(=O)(=O)c1ccc(F)cc1 [Example 9, (S)-N-(4-bromo-2-fluorobenzyl)-1-(4-fluorophenylsulfonyl)pyrrolidine-2-carboxamide]
4.77 | O=C(NCc1ccnc(OCCC(F)(F)F)c1)[C@@H]1CCCN1S(=O)(=O)c1cc(F)cc(F)c1 [Example 10, (S)-1-(3,5-Difluorophenylsulfonyl)-N-((2-(3,3,3-trifluoropropoxy)pyridin-4-yl)methyl)pyrrolidine-2-carboxamide]
5.36 | CCCc1cc(CNC(=O)[C@@H]2CCCN2S(=O)(=O)c2ccccc2)ccc1C#N [Example 11, (S)-N-(4-cyano-3-propylbenzyl)-1-(phenylsulfonyl)pyrrolidine-2-carboxamide]
4.79 | O=C(NCc1ccc(Br)cc1F)[C@@H]1C[C@@H](F)CN1S(=O)(=O)c1ccc(F)cc1 [Example 12, (2S,4R)-N-(4-bromo-2-fluorobenzyl)-4-fluoro-1-(4-fluorophenyl-sulfonyl)pyrrolidine-2-carboxamide]
4.59 | O=C(NCc1ccnc(OCCC(F)(F)F)c1)[C@@H]1C[C@@H](F)CN1S(=O)(=O)c1ccc(F)c(F)c1 [Example 14, (2S,4R)-1-(3,4-Difluorophenylsulfonyl)-4-fluoro-N-((2-(3,3,3-trifluoropropoxy)pyridin-4-yl)methyl)pyrrolidine-2-carboxamide]
5.23 | CCOc1cc(F)cc(CNC(=O)[C@@H]2CCCN2S(=O)(=O)c2ccc(F)cc2)c1 [Example 15, (S)-N-(3-ethoxy-5-fluorobenzyl)-1-(4-fluorophenylsulfonyl)pyrrolidine-2-carboxamide]
4.89 | O=C(NCc1ccc(C(F)(F)F)cc1)[C@@H]1CCCN1S(=O)(=O)c1ccccc1 [Example 17, (S)-1-(Phenylsulfonyl)-N-(4-(trifluoromethyl)benzyl)pyrrolidine-2-carboxamide]
4.62 | O=C(NCc1cc(F)cc(OC(F)F)c1)[C@@H]1C[C@@H](F)CN1S(=O)(=O)c1ccc(F)cc1 [Example 18, (2S,4R)-N-(3-(difluoromethoxy)-5-fluorobenzyl)-4-fluoro-1-(4-fluorophenylsulfonyl)pyrrolidine-2-carboxamide]
5.03 | CC(C)CSc1cc(CNC(=O)[C@@H]2CCCN2S(=O)(=O)c2ccc(F)cc2)ccn1 [Example 19, (S)-1-(4-Fluorophenylsulfonyl)-N-((2-(isobutylthio)pyridin-4-yl)methyl)pyrrolidine-2-carboxamide]
4.90 | O=C(NCc1ccc(Cl)cc1)[C@@H]1CCCN1S(=O)(=O)c1ccc(F)cc1 [Example 20, (S)-N-(4-chlorobenzyl)-1-(4-fluorophenylsulfonyl)pyrrolidine-2-carboxamide]
4.81 | CC(C)Nc1cc(CNC(=O)[C@@H]2C[C@@H](F)CN2S(=O)(=O)c2ccccc2)ccc1Cl [Example 21, (2S,4R)-N-(4-chloro-3-(isopropylamino)benzyl)-4-fluoro-1-(phenylsulfonyl)pyrrolidine-2-carboxamide]
4.87 | O=C(NCc1cccc(C2CC2)c1)[C@@H]1CCCN1S(=O)(=O)c1ccccc1 [Example 22, (S)-N-(3-cyclopropylbenzyl)-1-(phenylsulfonyl)pyrrolidine-2-carboxamide]
5.11 | O=C(NCc1cccc(C2CC2)c1)[C@@H]1CCCN1S(=O)(=O)c1ccc(F)cc1 [Example 23, (S)-N-(3-cyclopropylbenzyl)-1-(4-fluorophenylsulfonyl)pyrrolidine-2-carboxamide]
4.77 | O=C(NCc1cccc(C(F)(F)F)c1)[C@@H]1CCCN1S(=O)(=O)c1ccccc1 [Example 24, (S)-1-(Phenylsulfonyl)-N-(3-(trifluoromethyl)benzyl)pyrrolidine-2-carboxamide]
4.43 | O=C(NCc1ccnc(OCCC(F)(F)F)c1)[C@@H]1C[C@@H](F)CN1S(=O)(=O)c1ccc(F)cc1 [Example 26, (2S,4R)-4-Fluoro-1-(4-fluorophenylsulfonyl)-N-((2-(3,3,3-trifluoropropoxy)pyridin-4-yl)methyl)pyrrolidine-2-carboxamide]
4.47 | O=C(NCc1cc(C(F)(F)F)ccn1)[C@@H]1CCCN1S(=O)(=O)c1ccc(F)cc1 [Example 27, (S)-1-(4-Fluorophenylsulfonyl)-N-((4-(trifluoromethyl)pyridin-2-yl)methyl)pyrrolidine-2-carboxamide]
4.87 | CC(C)CCOc1cncc(CNC(=O)[C@@H]2C[C@@H](F)CN2S(=O)(=O)c2ccc(F)cc2)c1 [Example 29, (2S,4R)-4-Fluoro-1-(4-fluorophenylsulfonyl)-N-((5-(isopentyloxy)pyridine-3-yl)methyl)pyrrolidine-2-carboxamide]
4.90 | O=C(NCc1cc(OCC(F)(F)F)ccn1)[C@@H]1CCCN1S(=O)(=O)c1ccc(F)c(F)c1 [Example 32, (S)-1-(3,4-Difluorophenylsulfonyl)-N-((4-(2,2,2-trifluoroethoxy)pyridin-2-yl)methyl)pyrrolidine-2-carboxamide]
4.73 | O=C(NCc1cc(OCC(F)(F)F)ccn1)[C@@H]1CCCN1S(=O)(=O)c1cc(F)cc(F)c1 [Example 33, (S)-1-(3,5-Difluorophenylsulfonyl)-N-((4-(2,2,2-trifluoroethoxy)pyridine-2-yl)methyl)pyrrolidine-2-carboxamide]
5.03 | CC(C)c1cc(CNC(=O)[C@@H]2CCCN2S(=O)(=O)c2ccccc2)ccc1C#N [Example 35, (S)-N-(4-cyano-3-isopropylbenzyl)-1-(phenylsulfonyl)pyrrolidine-2-carboxamide]
4.76 | CC(C)CSc1cc(CNC(=O)[C@@H]2C[C@@H](F)CN2S(=O)(=O)c2ccc(F)cc2)ccn1 [Example 36, (2S,4R)-4-Fluoro-1-(4-fluorophenylsulfonyl)-N-((2-(isobutylthio)pyridin-4-yl)methyl)pyrrolidine-2-carboxamide]
4.94 | O=C(NCc1ccc(Br)cc1)[C@@H]1CCCN1S(=O)(=O)c1ccc(F)cc1 [Example 37, (S)-N-(4-bromobenzyl)-1-(4-fluorophenylsulfonyl)pyrrolidine-2-carboxamide]

Compound | pIC50
CSCCOc1cccc(CNC(=O)[C@@H]2CCCN2S(=O)(=O)c2ccc(F)cc2)c1 [Example 1, (S)-1-(4-Fluorophenylsulfonyl)-N-(3-(2-(methylthio)ethoxy)benzyl) pyrrolidine-2-carboxamide] | 5.40
O=C(NCc1cc(F)cc(OC(F)F)c1)[C@@H]1CCCN1S(=O)(=O)c1ccc(F)cc1 [Example 13, (S)-N-(3-(difluoromethoxy)-5-fluorobenzyl)-1-(4-fluorophenylsulfonyl) pyrrolidine-2-carboxamide] | 4.94
COc1cc(Cl)cc(CNC(=O)[C@@H]2CCCN2S(=O)(=O)c2ccc(F)cc2)c1 [Example 16, (S)-N-(3-chloro-5-methoxybenzyl)-1-(4-fluorophenylsulfonyl) pyrrolidine-2-carboxamide] | 5.27
O=C(NCc1cccc(S(F)(F)(F)(F)F)c1)[C@@H]1CCCN1S(=O)(=O)c1ccccc1 [Example 25] | 5.17
CC(C)CCOc1cncc(CNC(=O)[C@@H]2CCCN2S(=O)(=O)c2ccc(F)cc2)c1 [Example 28, (S)-1-(4-Fluorophenylsulfonyl)-N-((5-(isopentyloxy)pyridin-3-yl)methyl) pyrrolidine-2-carboxamide] | 5.39
CC(C)COc1ccnc(CNC(=O)[C@@H]2CCCN2S(=O)(=O)c2ccc(F)cc2)c1 [Example 30, (S)-1-(4-Fluorophenylsulfonyl)-N-((4-isobutoxypyridin-2-yl)methyl) pyrrolidine-2-carboxamide] | 4.98
CC(C)CSc1ccnc(CNC(=O)[C@@H]2CCCN2S(=O)(=O)c2ccc(F)cc2)c1 [Example 31, (S)-1-(4-Fluorophenylsulfonyl)-N-((4-(isobutylthio)pyridin-2-yl)methyl) pyrrolidine-2-carboxamide] | 5.07
CCCc1cc(CNC(=O)[C@@H]2C[C@@H](F)CN2S(=O)(=O)c2ccccc2)ccc1C#N [Example 34, (2S,4R)-N-(4-cyano-3-propylbenzyl)-4-fluoro-1-(phenylsulfonyl) pyrrolidine-2-carboxamide] | 4.90

Source: EP2520566A1, “New Pharmaceutical Compounds” (Orion Corporation, priority 2011, dated 2012)
